Test [1] concerns MRSA ATCC33591. The test is described as follows: MIC by broth microdilution assay according to CLSI. It counts as cell-based, Staphylococcus aureus. The protocol: The MICs of endocardisin, vancomycin and daptomycin were determined by a broth microdilution assay according to Clinical Laboratory Standards Institute (CLSI). MIC is defined as the lowest drug concentration completely inhibiting organisms growth.

The test system of test [2] is MRSA ATCC33591. Description: Experimental rabbit infective endocarditis model, Example 2 (dose response). The conditions noted are these: for Staphylococcus aureus densities, Kidneys / Staphylococcus aureus densities, Spleen / Staphylococcus aureus densities, Vegetations: rabbit, 3 days, 24 h after last dose. It counts as in vivo, Staphylococcus aureus. Here is the method:
Rabbit IE was induced following transcarotid-transaortic valve indwelling catheterization. At 24 hrs after iv infection with 10^6 cfu MRSA ATCC33591 (ID95 inoculum), animals received either:
i) no therapy (control); ii) endocardisin at 5, 10 or 20 mg/kg, iv, bid; iii) vancomycin at 15 mg/kg, iv, bid; or iv) daptomycin at 12 mg/kg, iv, once-daily;
All regimens were for 3 days. At 24 hours after the last antibiotic dose, target tissues were removed and quantitatively cultured.

Test [3] has as its system MRSA ATCC33591. The test is described as follows: Experimental rabbit aortic infective endocarditis model, Example 1 (end of treatment and relapse). The settings on record: for Staphylococcus aureus densities, Kidneys / Staphylococcus aureus densities, Spleen / Staphylococcus aureus densities, Vegetations / Staphylococcus aureus densities, Kidneys (Relapse) / Staphylococcus aureus densities, Spleen (Relapse) / Staphylococcus aureus densities, Vegetations (Relapse): rabbit, iv, 3 days; for Staphylococcus aureus densities, Kidneys / Staphylococcus aureus densities, Spleen / Staphylococcus aureus densities, Vegetations: 24 h after last dose, mean ± SD; for Staphylococcus aureus densities, Kidneys (Relapse) / Staphylococcus aureus densities, Spleen (Relapse) / Staphylococcus aureus densities, Vegetations (Relapse): then drug-free for an extra 3 days. It counts as in vivo, Staphylococcus aureus. The protocol:
Experimental aortic infective endocarditis model was induced in New Zealand White rabbits with a methicillin-resistant Staphylococcus aureus (MRSA), strain ATCC33591, following trans-carotid-transaortic valve indwelling catheterization.
After aortic catheterization and 24 hr post-infection, animals were randomized to receive either:
i) no therapy (control); ii) endocardisin at 40 mg/kg, iv, twice daily; iii) vancomycin at 15 mg/kg, iv, twice daily; or iv) daptomycin at 12 mg/kg, iv, once daily (the latter two dose-strategies to mimic human-like PK).
Treatments lasted for 3 days. At 24 hours after the last antibiotic dose, half the animals were sacrificed with a lethal dose of sodium pentobarbital to test the treatment efficacies. The remaining animals resided drug-free for an extra 3 days for relapse studies. At sacrifice, vegetations, kidneys and spleen were removed and quantitatively cultured. […] Culture results were expressed as mean log10 CFU per gram of tissue (±SD).

≈ marks a conversion by molar mass, not a printed value. Where two headings read alike, the source gives them in different places. Marks after values point to notes of the source that are not given here.

With “endocardisin: synthetic defensin; a polypeptide having the amino acid sequence shown in SEQ ID NO: 1 (GFGCNGPWNEDDLRCHNHCKSIKGYKGGYCAKGGFVCKCY)”, the MIC in the test with MRSA ATCC33591 [1] (study strain MRSA ATCC33591, lowest drug concentration completely inhibiting growth) is on record as 0.5 micrograms/ml. For the same compound, the “dose dependence of therapeutic efficacy in all target tissues” value with MRSA ATCC33591 [2] (5, 10 or 20 mg/kg, iv, bid) is listed as “dose-dependent therapeutic efficacy”. For the same compound, the “reduction of MRSA densities in all target tissues vs. vancomycin therapy” value with MRSA ATCC33591 [2] (endocardisin at 20 mg/kg) is on record as “significantly greater efficacy”. Besides, in the test on MRSA ATCC33591 [2] (5 mg/kg, iv, twice-daily), the “Staphylococcus aureus densities, Kidneys” value is reported as 4.33 +/− 1.27 log10 CFU/g tissue; the “Staphylococcus aureus densities, Spleen” value is on record as 4.61 +/− 1.11 log10 CFU/g tissue; the “Staphylococcus aureus densities, Vegetations” value was 6.44 +/− 1.70 log10 CFU/g tissue. Besides, in the test on MRSA ATCC33591 [2] (10 mg/kg, iv, twice-daily), the “Staphylococcus aureus densities, Kidneys” value was 3.19 +/− 1.06 log10 CFU/g tissue; the “Staphylococcus aureus densities, Spleen” value is given as 2.62 +/− 0.60 log10 CFU/g tissue; the “Staphylococcus aureus densities, Vegetations” value was 4.74 +/− 1.84 log10 CFU/g tissue. In the test on MRSA ATCC33591 [2] (20 mg/kg, iv, twice-daily), the “Staphylococcus aureus densities, Kidneys” value is reported as 0.61 +/− 0.21 log10 CFU/g tissue; the “Staphylococcus aureus densities, Spleen” value is 0.61 +/− 0.12 log10 CFU/g tissue; the “Staphylococcus aureus densities, Vegetations” value is listed as 1.57 +/− 0.75 log10 CFU/g tissue. For the same compound, the preventing relapse result with MRSA ATCC33591 [3] (3 days drug-free after 3 days treatment) is listed as “most effective in preventing relapse”. Further, the “reduction of MRSA densities in all target tissues as compared with vancomycin therapy” value with MRSA ATCC33591 [3] (endocardisin 40 mg/kg iv twice daily, P<0.001) was “significantly greater efficacy”. Besides, in the test with MRSA ATCC33591 [3] (40 mg/kg, twice-daily), the “Staphylococcus aureus densities, Kidneys” value is recorded as 1.18 +/− 0.75* log10 CFU/g tissue; the “Staphylococcus aureus densities, Spleen” value was 1.02 +/− 0.65* log10 CFU/g tissue; the “Staphylococcus aureus densities, Vegetations” value was 2.41 +/− 1.50* log10 CFU/g tissue; the “Staphylococcus aureus densities, Kidneys (Relapse)” value is 0.75 +/− 0.79* log10 CFU/g tissue. Also, in the test with MRSA ATCC33591 [3] (40 mg/kg, twice-daily), the “Staphylococcus aureus densities, Spleen (Relapse)” value is recorded as 1.17 +/− 0.70* log10 CFU/g tissue and the “Staphylococcus aureus densities, Vegetations (Relapse)” value is reported as 1.45 +/− 0.64* log10 CFU/g tissue.

Compound `CN[C@H](CC(C)C)C(=O)N[C@H]1C(=O)N[C@@H](CC(N)=O)C(=O)N[C@H]2C(=O)N[C@H]3C(=O)N[C@H](C(=O)N[C@H](C(=O)O)c4cc(O)cc(O)c4-c4cc3ccc4O)[C@H](O)c3ccc(c(Cl)c3)Oc3cc2cc(c3O[C@@H]2O[C@H](CO)[C@@H](O)[C@H](O)[C@H]2O[C@H]2C[C@](C)(N)[C@H](O)[C@H](C)O2)Oc2ccc(cc2Cl)[C@H]1O` [vancomycin] gave an MIC against MRSA ATCC33591 [1] (Staphylococcus aureus) of 2 µg/mL (≈ 1.38 µM). Also, in the test with MRSA ATCC33591 [2] (15 mg/kg, iv, twice-daily), the “Staphylococcus aureus densities, Kidneys” value was 3.07 +/− 0.53 log10 CFU/g tissue; the “Staphylococcus aureus densities, Spleen” value is 3.02 +/− 0.51 log10 CFU/g tissue; the “Staphylococcus aureus densities, Vegetations” value is 5.60 +/− 1.47 log10 CFU/g tissue. In addition, in the test on MRSA ATCC33591 [3] (15 mg/kg, twice-daily), the “Staphylococcus aureus densities, Kidneys” value is given as 3.07 +/− 0.53 log10 CFU/g tissue; the “Staphylococcus aureus densities, Spleen” value is on record as 3.02 +/− 0.51 log10 CFU/g tissue; the “Staphylococcus aureus densities, Vegetations” value is reported as 5.60 +/− 1.47 log10 CFU/g tissue; the “Staphylococcus aureus densities, Kidneys (Relapse)” value is on record as 4.69 +/− 1.63 log10 CFU/g tissue. Further, in the test on MRSA ATCC33591 [3] (15 mg/kg, twice-daily), the “Staphylococcus aureus densities, Spleen (Relapse)” value is 3.98 +/− 1.27 log10 CFU/g tissue and the “Staphylococcus aureus densities, Vegetations (Relapse)” value is 6.36 +/− 1.57 log10 CFU/g tissue.

For the compound `CCCCCCCCCC(=O)N[C@@H](Cc1c[nH]c2ccccc12)C(=O)N[C@H](CC(N)=O)C(=O)N[C@@H](CC(=O)O)C(=O)N[C@@H]1C(=O)NCC(=O)N[C@@H](CCCN)C(=O)N[C@@H](CC(=O)O)C(=O)N[C@H](C)C(=O)N[C@@H](CC(=O)O)C(=O)NCC(=O)N[C@H](CO)C(=O)N[C@@H]([C@H](C)CC(=O)O)C(=O)N[C@@H](CC(=O)c2ccccc2N)C(=O)O[C@@H]1C` [daptomycin], the MIC with MRSA ATCC33591 [1] (Staphylococcus aureus, study strain MRSA ATCC33591, lowest drug concentration completely inhibiting growth, read-out: MIC) stood at 0.125 µg/mL (≈ 0.0771 µM). Moreover, in the test with MRSA ATCC33591 [2] (12 mg/kg, iv, once-daily), the “Staphylococcus aureus densities, Kidneys” value was 0.76 +/− 0.53 log10 CFU/g tissue; the “Staphylococcus aureus densities, Spleen” value is on record as 0.91 +/− 0.53 log10 CFU/g tissue; the “Staphylococcus aureus densities, Vegetations” value is listed as 1.90 +/− 0.82 log10 CFU/g tissue. Further, in the test with MRSA ATCC33591 [3] (12 mg/kg, once-daily), the “Staphylococcus aureus densities, Kidneys” value is 0.76 +/− 0.52* log10 CFU/g tissue; the “Staphylococcus aureus densities, Spleen” value is recorded as 0.91 +/− 0.53* log10 CFU/g tissue; the “Staphylococcus aureus densities, Vegetations” value was 1.90 +/− 0.82* log10 CFU/g tissue; the “Staphylococcus aureus densities, Kidneys (Relapse)” value is on record as 1.68 +/− 2.24** log10 CFU/g tissue. For the same compound, in the test on MRSA ATCC33591 [3] (12 mg/kg, once-daily), the “Staphylococcus aureus densities, Spleen (Relapse)” value was 1.30 +/− 1.48** log10 CFU/g tissue and the “Staphylococcus aureus densities, Vegetations (Relapse)” value was 2.46 +/− 2.36** log10 CFU/g tissue.

The values above are taken from patent publication US20110130326A1, “DEFENSINS FOR TREATMENT OF INFECTIVE ENDOCARDITIS” (Novozymes A/S, priority 2009, published 2011).
